Results as given in PubChem BioAssay AID1845200 (Molecular Pharmacology Branch, DTP, NCI, 2023).
Activity calls are given as the source filed them. Rule for the calls: active = viability on the fitted dose curve at most 10% of control; inactive = the rest.

Tested on: ASPS-1 complex tumor spheroids, viability
Experiment: Anticancer human tumor ASPS-1 cell line growth inhibition;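 note: spheroids exposed to agents for 7 days after 3 days of growth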;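 for viability, T/C: 100% = DMSO vehicle treated spheroids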
Settings: for IC50: curve of first compound; for viability, T/C: stronger effect = lower value
Excerpt: Multicellular complex tumor spheroid response to DNA repair inhibitors in combination with DNA-damaging drugs
This study explores the anticancer activities of DNA-damaging drugs and inhibitors of DNA damage repair, both as single agents and in combinations. Complex tumor spheroids comprised of malignant cells, endothelial cells and mesenchymal stem cells served as an in vitro model for human solid tumors. This model system incorporates physiologically relevant features and patient-derived or established malignant cell lines with clinically relevant genetic alterations from many tumor types. Twenty-six patient-derived or established malignant cell lines were evaluated representing sarcoma, melanoma, small cell lung cancer (SCLC), non-small cell lung cancer (NSCLC), as well as bladder, ovarian and pancreatic cancers. The concentration ranges selected for each drug and investigational agent were based upon clinically achievable concentrations if the clinical Cmax of the agent was known.
Compounds. The drugs and compounds olaparib (NSC753686), talazoparib (NSC767125), berzosertib (NSC777718), elimusertib (NSC800525), nedisertib (NSC802822), VX-984 (NSC792969), AZD-1390 (NSC803789), temozolomide (NSC362856), topotecan (NSC609699), trabectedin (NSC813783), staurosporine (NSC755774), and gemcitabine (NSC613327) were obtained from the National Cancer Institute (NCI) Developmental Therapeutics Program Chemical Repository. The FDA-approved anticancer drug set is available from the Developmental Therapeutics Program at https://dtp.cancer.gov/organization/dscb/obtaining/available_plates.htm. […] The stock solutions were prepared in dimethyl sulfoxide (DMSO, Sigma-Aldrich, St. Louis, MO, cat. D2650) at 400-fold the tested concentration and stored at -70 degrees C. Prior to their use, the stock solutions were diluted in fresh medium and the final DMSO concentration in the assay was 0.25% (v/v). All drugs and investigational agents were tested over a range starting from a high concentration at or near the clinical Cmax and decreasing in half-log increments. If the clinical Cmax for an agent had not been determined, the highest concentration tested was 10 microM.
Cell Lines. The patient-derived cancer cell (PDC) lines: 156681-154-R-J1-PDC, 283228-195-R-J1-PDC, 287954-098-R-J1-PDC, 292921-168-R-J2-PDC, 349418-098-R-PDC, 425362-245-T-J1-PDC, 556581-035-R-J1-PDC, and BL0293-F563-PDC were received from the NCI Patient-Derived Models Repository (PDMR, https://pdmr.cancer.gov). The established cell lines HS-SY-2 (RRID:CVCL_8719), MPNST, and SYO-1 (RRID:CVCL_7146) were obtained from the Sloan Kettering Institute. The alveolar soft parts sarcoma cell line ASPS-1 (RRID:CVCL_S738) was established at the NCI and grown from internal seed stocks. The following established cell lines were purchased from the American Type Culture Collection (ATCC, Manassas, VA): G-401 (ATCC, cat. CRL-1441, RRID:CVCL_0270), SW982 (ATCC, cat. HTB-93, RRID:CVCL_1734), VA-ES-BJ (ATCC, cat. CRL-2138, RRID:CVCL_1785), NCI-H719 (ATCC, cat. CRL-5837, RRID:CVCL_1582), NCI-H196 (ATCC, cat. CRL-5823, RRID:CVCL_1509), NCI-H841 (ATCC, cat. CRL-5845, RRID:CVCL_1595), NCI-H1618 (ATCC, cat. CRL-5879, RRID:CVCL_1480), NCI-H1876 (ATCC, cat. CRL-5902, RRID:CVCL_1503), DMS 114 (ATCC, cat. CRL-2066; RRID:CVCL_1174), NCI-H211 (ATCC, cat. CRL-5824; RRID:CVCL_1529), and SW 1271 (ATCC, cat. CRL-2177, RRID:CVCL_1716). The small cell lung cancer cell line COR-L88 was purchased from Sigma-Aldrich (cat. 92031917-1VL, RRID:CVCL_1141). The non-small cell lung cancer cell lines NCI-H226 (RRID:CVCL_1544) and NCI-H322M (RRID:CVCL_1557) were established at the NCI and grown from internal seed stocks. Pooled donor human umbilical vein endothelial cells (HUVEC, Lonza, cat. CC-2519) and human mesenchymal stem cells (hMSC, Lonza, cat. PT-2501) were purchased from Lonza (Walkersville, MD).
Cell Culture. All cells were maintained in an incubator at 37 degrees C and 5% CO2 with 95% humidity. […]

[1] = second compound 0.003 µM, first compound 0.00949 µM
[2] = second compound 0.003 µM, first compound 0.03 µM
[3] = second compound 0.003 µM, first compound 0.0949 µM
[4] = second compound 0.003 µM, first compound 0.3 µM
[5] = second compound 0.003 µM, first compound 0.949 µM
[6] = second compound 0.003 µM, first compound 3 µM
[7] = second compound 0.00949 µM, first compound 0.00949 µM
[8] = second compound 0.00949 µM, first compound 0.03 µM
[9] = second compound 0.00949 µM, first compound 0.0949 µM
[10] = second compound 0.00949 µM, first compound 0.3 µM
[11] = second compound 0.00949 µM, first compound 0.949 µM
[12] = second compound 0.00949 µM, first compound 3 µM
[13] = second compound 0.03 µM, first compound 0.00949 µM
[14] = second compound 0.03 µM, first compound 0.03 µM
[15] = second compound 0.03 µM, first compound 0.0949 µM
[16] = second compound 0.03 µM, first compound 0.3 µM
[17] = second compound 0.03 µM, first compound 0.949 µM
[18] = second compound 0.03 µM, first compound 3 µM
[19] = second compound 0.0949 µM, first compound 0.00949 µM
[20] = second compound 0.0949 µM, first compound 0.03 µM
[21] = second compound 0.0949 µM, first compound 0.0949 µM
[22] = second compound 0.0949 µM, first compound 0.3 µM
[23] = second compound 0.0949 µM, first compound 0.949 µM
[24] = second compound 0.0949 µM, first compound 3 µM
[25] = second compound 0.3 µM, first compound 0.00949 µM
[26] = second compound 0.3 µM, first compound 0.03 µM
[27] = second compound 0.3 µM, first compound 0.0949 µM
[28] = second compound 0.3 µM, first compound 0.3 µM
[29] = second compound 0.3 µM, first compound 0.949 µM
[30] = second compound 0.3 µM, first compound 3 µM

Row | Compound | IC50 (second compound 0.003 µM) [nM] | IC50 (second compound 0.00949 µM) [nM] | IC50 (second compound 0.03 µM) [nM] | IC50 (second compound 0.0949 µM) [nM] | IC50 (second compound 0.3 µM) [nM] | viability, T/C [3] [%] | viability, T/C [4] [%] | viability, T/C [5] [%] | viability, T/C [6] [%] | viability, T/C [9] [%] | viability, T/C [10] [%] | viability, T/C [11] [%] | viability, T/C [12] [%] | viability, T/C [15] [%] | viability, T/C [16] [%] | viability, T/C [17] [%] | viability, T/C [18] [%] | viability, T/C [21] [%] | viability, T/C [22] [%] | viability, T/C [23] [%] | also measured
1 | CNCc1ccc(-c2cc(-c3nc(-c4ccc(S(=O)(=O)C(C)C)cc4)cnc3N)on2)cc1 + CC[C@@]1(O)C(=O)OCc2c1cc1n(c2=O)Cc2cc3c(CN(C)C)c(O)ccc3nc2-1 | 478 | 412 | 256 | 19.6 | < 9.49 | 98.8 | 60.8 | 30.8 | 5.94 | 107 | 54.5 | 30.2 | 5.23 | 90.5 | 41.9 | 25.3 | 10.3 | 41.8 | 29 | 22.4 | viability, T/C [1]: 102%; viability, T/C [2]: 103%; viability, T/C [7]: 104%; viability, T/C [8]: 108%; viability, T/C [13]: 97.1%; viability, T/C [14]: 105%; viability, T/C [19]: 54.1%; viability, T/C [20]: 45.6%; viability, T/C [24]: 2.96%; viability, T/C [25]: 44.9%; viability, T/C [26]: 38.3%; viability, T/C [27]: 26.9%; viability, T/C [28]: 23.4%; viability, T/C [29]: 23.7%; viability, T/C [30]: 7.06%
2 | Cc1sc2c(c1C)C(c1ccc(Cl)cc1)=NC(CC(=O)Nc1ccc(O)cc1)c1nnc(C)n1-2 (stereo not given) + CC[C@@]1(O)C(=O)OCc2c1cc1n(c2=O)Cc2cc3c(CN(C)C)c(O)ccc3nc2-1 | > 3000 | > 3000 | > 3000 | > 3000 | 550 | 106 | 107 | 94.4 | 84.2 | 118 | 109 | 97.8 | 88.5 | 102 | 94.4 | 89.6 | 77.4 | 77.2 | 71.2 | 66.9 | viability, T/C [1]: 105%; viability, T/C [2]: 111%; viability, T/C [7]: 114%; outcome [8]: inactive; viability, T/C [13]: 100%; viability, T/C [14]: 105%; viability, T/C [19]: 64.2%; viability, T/C [20]: 71.7%; viability, T/C [24]: 58.8%; viability, T/C [25]: 52.1%; viability, T/C [26]: 55.2%; viability, T/C [27]: 58.7%; viability, T/C [28]: 55.3%; viability, T/C [29]: 44.5%; viability, T/C [30]: 33.7%
3 | Cn1ncnc1[C@H]1c2n[nH]c(=O)c3cc(F)cc(c23)N[C@@H]1c1ccc(F)cc1 + CC[C@@]1(O)C(=O)OCc2c1cc1n(c2=O)Cc2cc3c(CN(C)C)c(O)ccc3nc2-1 | > 3000 | > 3000 | 2610 | < 9.49 | < 9.49 | 101 | 98.4 | 98.8 | 76.5 | 100 | 95.7 | 86.6 | 69.5 | 67.4 | 61.4 | 56.6 | 49 | 43.5 | 38.2 | 38 | viability, T/C [1]: 97.5%; viability, T/C [2]: 98.3%; viability, T/C [7]: 103%; viability, T/C [8]: 92%; viability, T/C [13]: 78.4%; viability, T/C [14]: 75.9%; viability, T/C [19]: 47%; viability, T/C [20]: 40.9%; viability, T/C [24]: 34.1%; viability, T/C [25]: 46.9%; viability, T/C [26]: 41.9%; viability, T/C [27]: 40%; viability, T/C [28]: 41.3%; viability, T/C [29]: 40.1%; viability, T/C [30]: 39%
4 | O=C(c1cc(Cc2n[nH]c(=O)c3ccccc23)ccc1F)N1CCN(C(=O)C2CC2)CC1 + CC[C@@]1(O)C(=O)OCc2c1cc1n(c2=O)Cc2cc3c(CN(C)C)c(O)ccc3nc2-1 | > 30000 | > 30000 | > 30000 | < 94.9 | < 94.9 | 114 | 107 | 101 | 105 | 102 | 106 | 103 | 105 | 84.9 | 88.8 | 90.3 | 77.4 | 45.8 | 50 | 49 | viability, T/C (second compound 0.003 µM, first compound 9.49 µM): 104%; viability, T/C (second compound 0.003 µM, first compound 30 µM): 97.3%; viability, T/C (second compound 0.00949 µM, first compound 9.49 µM): 101%; viability, T/C (second compound 0.00949 µM, first compound 30 µM): 93.5%; viability, T/C (second compound 0.03 µM, first compound 9.49 µM): 71.4%; viability, T/C (second compound 0.03 µM, first compound 30 µM): 66.1%; viability, T/C [24]: 48.6%; viability, T/C (second compound 0.0949 µM, first compound 9.49 µM): 40.1%; viability, T/C (second compound 0.0949 µM, first compound 30 µM): 49.7%; viability, T/C [27]: 49.1%; viability, T/C [28]: 45.4%; viability, T/C [29]: 43.1%; viability, T/C [30]: 44.2%; viability, T/C (second compound 0.3 µM, first compound 9.49 µM): 35.6%; viability, T/C (second compound 0.3 µM, first compound 30 µM): 42.2%
